In patent US20150209364A1, “METHOD FOR TREATING EPIDERMOID CARCINOMA” (Johnpro Biotech Inc., priority 2011, published 2015):
pIC50: −log10 of the molar value.

Test system: erlotinib-resistant H1975 cells
Test: cells
Type: cell-based
Settings: Homo sapiens, NCI-H1975, 72 h, read-out: IC50 (cell viability)
Experimental: The cells were plated at 5×10^4/ml in 100 μL of culture medium in a 96-well microtiter plate, followed by incubation with drugs. Cell viability after the treatment was determined using 3-(4,5-dimethylthiazol-2-yl)-5(3-carboxymethoxy-phenyl)-2-(4-sulfophenyl)-2H-tetrazolium (MTS) assay (Promega, Madison, Wis.) per the manufacturer's instruction. Absorbance was measured at 490 nm for MTS assay with an enzyme-linked immunosorbent assay plate reader from MTX Lab Systems, Inc. (Vienna, Va.). […] Each experiment was performed in triplicate, and the results were expressed as mean±SD.

## CCN(CC)CCCC(C)Nc1ccnc2cc(Cl)ccc12 (stereo not shown) [chloroquine]
  pIC50: 4.12
